Measured values: ChEMBL document CHEMBL5370665, “Insight from Linker Investigations: Discovery of a Novel Phenylbenzothiazole Necroptosis Inhibitor Targeting Receptor-Interacting Protein Kinase 1 (RIPK1) from a Phenoxybenzothiazole Compound with Dual RIPK1/3 Targeting Activity” (J Med Chem, 2023)
Activity calls are given as the source filed them. No cut-off for these calls is given here.

How the values were obtained:
HT-29 [1] = assay: Anti-necroptic activity against human HT-29 cells assessed as inhibition of TSZ (TNFalpha, Smac mimetic and z-VAD-FMK) induced necroptosis pretreated with compound followed by TSZ stimulation for 16 to 18 hrs by CellTiter-Glo Luminescent cell viability assay; assay type: functional, cell-based
[2] = Cytotoxicity against human HT-29 cells assessed as reduction in cell viability incubated for 16 to 24 hrs by CellTiter-Glo Luminescent cell viability assay; assay type: toxicity, cell-based; details: time 16-24 hrs
[3] = biological target: Receptor-interacting serine/threonine-protein kinase 3 (Homo sapiens, UniProt Q9Y572); assay: Binding affinity to recombinant RIPK3 (unknown origin) assessed as dissociation constant incubated for 1 hr by KINOMEscanTM assay
Chain of Receptor-interacting serine/threonine-protein kinase 3 (Q9Y572 whole entry): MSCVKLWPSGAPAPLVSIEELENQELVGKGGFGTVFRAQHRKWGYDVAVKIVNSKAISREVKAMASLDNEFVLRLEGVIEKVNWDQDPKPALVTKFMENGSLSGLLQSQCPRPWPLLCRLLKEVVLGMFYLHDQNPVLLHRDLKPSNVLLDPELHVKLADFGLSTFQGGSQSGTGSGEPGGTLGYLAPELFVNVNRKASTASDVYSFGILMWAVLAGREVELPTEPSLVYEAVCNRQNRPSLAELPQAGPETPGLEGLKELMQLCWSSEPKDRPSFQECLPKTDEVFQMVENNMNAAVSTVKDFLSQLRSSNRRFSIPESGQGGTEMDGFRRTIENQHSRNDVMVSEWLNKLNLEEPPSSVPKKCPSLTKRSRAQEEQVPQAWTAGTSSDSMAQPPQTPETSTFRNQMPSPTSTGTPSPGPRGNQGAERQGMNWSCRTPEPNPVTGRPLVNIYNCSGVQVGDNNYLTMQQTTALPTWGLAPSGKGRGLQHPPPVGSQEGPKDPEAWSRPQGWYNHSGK

[4] = biological target: T1, Receptor-interacting serine/threonine-protein kinase 1 (Homo sapiens, UniProt Q13546); assay: Binding affinity to recombinant RIPK1 (unknown origin) assessed as dissociation constant incubated for 1 hr by KINOMEscanTM assay
T1 sequence (Q13546 whole entry): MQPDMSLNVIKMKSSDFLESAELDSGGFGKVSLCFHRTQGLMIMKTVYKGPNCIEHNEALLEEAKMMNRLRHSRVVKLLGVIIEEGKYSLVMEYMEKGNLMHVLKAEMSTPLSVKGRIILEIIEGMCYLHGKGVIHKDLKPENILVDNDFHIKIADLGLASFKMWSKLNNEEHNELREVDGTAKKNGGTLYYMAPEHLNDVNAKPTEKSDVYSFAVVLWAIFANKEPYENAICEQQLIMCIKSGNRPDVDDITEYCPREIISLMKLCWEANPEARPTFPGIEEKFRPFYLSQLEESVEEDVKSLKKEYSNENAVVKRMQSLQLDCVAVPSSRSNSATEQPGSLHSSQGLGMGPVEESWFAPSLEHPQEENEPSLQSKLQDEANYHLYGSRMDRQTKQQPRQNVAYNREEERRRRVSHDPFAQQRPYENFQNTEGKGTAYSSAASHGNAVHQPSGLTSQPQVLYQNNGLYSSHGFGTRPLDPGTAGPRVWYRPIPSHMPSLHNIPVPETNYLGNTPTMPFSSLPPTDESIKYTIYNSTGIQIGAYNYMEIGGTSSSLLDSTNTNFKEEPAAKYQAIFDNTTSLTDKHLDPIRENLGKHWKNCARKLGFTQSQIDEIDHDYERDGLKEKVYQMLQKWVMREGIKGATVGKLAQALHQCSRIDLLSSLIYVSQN

HT-29 [5] = assay: Anti-apoptotic activity against human HT-29 cells assessed as inhibition of TC (human TNFalpha, cycloheximide) induced apoptosis upto 20 uM pretreated with compound followed by TC stimulation for 36 hrs by CellTiter-Glo Luminescent cell viability assay; assay type: functional, cell-based
HT-29 [6] = assay: Anti-necroptic activity in TSZ (TNFalpha, Smac mimetic and z-VAD-FMK) induced necroptosis in human HT-29 cells assessed as increase in cell viability preincubated for 30 mins pretreated followed by TSZ stimulation and measured after 16 hrs by MTT assay; assay type: functional, cell-based
Mus musculus [7] = assay: Anti-inflammatory activity against C57BL/6J mouse model of TNFalpha-induced systemic inflammatory response syndrome (SIRS) assessed as decrease in IL-1beta level in lung at 5 mg/kg,po 2 hrs prior to mTNFalpha and z-VAD-FMK stimulation for 8 hrs by ELISA; assay type: functional, organism-based; details: time 10.0 hrs
Mus musculus [8] = assay: Anti-inflammatory activity against C57BL/6J mouse model of TNFalpha-induced systemic inflammatory response syndrome (SIRS) assessed as increase in body temperature at 5 mg/kg,po 2 hrs prior to mTNFalpha and z-VAD-FMK stimulation and measured upto 18 hrs by electric thermometer analysis; assay type: functional, organism-based; details: time 20.0 hrs
Mus musculus [9] = assay: Anti-inflammatory activity against C57BL/6J mouse model of TNFalpha-induced systemic inflammatory response syndrome (SIRS) assessed as decrease in IL-6 level in brain at 5 mg/kg,po 2 hrs prior to mTNFalpha and z-VAD-FMK stimulation for 8 hrs by ELISA; assay type: functional, organism-based; details: time 10.0 hrs
Mus musculus [10] = assay: Anti-inflammatory activity against C57BL/6J mouse model of TNFalpha-induced systemic inflammatory response syndrome (SIRS) assessed as decrease in IL-6 level in liver at 5 mg/kg,po 2 hrs prior to mTNFalpha and z-VAD-FMK stimulation for 8 hrs by ELISA; assay type: functional, organism-based; details: time 10.0 hrs
Mus musculus [11] = assay: Anti-inflammatory activity against C57BL/6J mouse model of TNFalpha-induced systemic inflammatory response syndrome (SIRS) assessed as decrease in IL-1beta level in heart at 5 mg/kg,po 2 hrs prior to mTNFalpha and z-VAD-FMK stimulation for 8 hrs by ELISA; assay type: functional, organism-based; details: time 10.0 hrs
Mus musculus [12] = assay: Anti-inflammatory activity against C57BL/6J mouse model of TNFalpha-induced systemic inflammatory response syndrome (SIRS) assessed as decrease in IL-1beta level in liver at 5 mg/kg,po 2 hrs prior to mTNFalpha and z-VAD-FMK stimulation for 8 hrs by ELISA; assay type: functional, organism-based; details: time 10.0 hrs
Mus musculus [13] = assay: Anti-inflammatory activity against C57BL/6J mouse model of TNFalpha-induced systemic inflammatory response syndrome (SIRS) assessed as decrease in IL-6 level in spleen at 5 mg/kg,po 2 hrs prior to mTNFalpha and z-VAD-FMK stimulation for 8 hrs by ELISA; assay type: functional, organism-based; details: time 10.0 hrs
Mus musculus [14] = assay: Anti-inflammatory activity against C57BL/6J mouse model of TNFalpha-induced systemic inflammatory response syndrome (SIRS) assessed as decrease in IL-6 level in lung at 5 mg/kg,po 2 hrs prior to mTNFalpha and z-VAD-FMK stimulation for 8 hrs by ELISA; assay type: functional, organism-based; details: time 10.0 hrs
Mus musculus [15] = assay: Anti-inflammatory activity against C57BL/6J mouse model of TNFalpha-induced systemic inflammatory response syndrome (SIRS) assessed as decrease in IL-1beta level in intestine at 5 mg/kg,po 2 hrs prior to mTNFalpha and z-VAD-FMK stimulation for 8 hrs by ELISA; assay type: functional, organism-based; details: time 10.0 hrs
Mus musculus [16] = assay: Anti-inflammatory activity against C57BL/6J mouse model of TNFalpha-induced systemic inflammatory response syndrome (SIRS) assessed as increase in survival rate at 5 mg/kg,po 2 hrs prior to mTNFalpha and z-VAD-FMK stimulation and measured upto 24 hrs; assay type: functional; details: time 26 hrs
Mus musculus [17] = assay: Anti-inflammatory activity against C57BL/6J mouse model of TNFalpha-induced systemic inflammatory response syndrome (SIRS) assessed as decrease in IL-1beta level in spleen at 5 mg/kg,po 2 hrs prior to mTNFalpha and z-VAD-FMK stimulation for 8 hrs by ELISA; assay type: functional, organism-based; details: time 10.0 hrs
Mus musculus [18] = assay: Anti-inflammatory activity against C57BL/6J mouse model of TNFalpha-induced systemic inflammatory response syndrome (SIRS) assessed as decrease in IL-1beta level in kidney at 5 mg/kg,po 2 hrs prior to mTNFalpha and z-VAD-FMK stimulation for 8 hrs by ELISA; assay type: functional, organism-based; details: time 10.0 hrs
Mus musculus [19] = assay: Anti-inflammatory activity against C57BL/6J mouse model of TNFalpha-induced systemic inflammatory response syndrome (SIRS) assessed as decrease in IL-1beta level in brain at 5 mg/kg,po 2 hrs prior to mTNFalpha and z-VAD-FMK stimulation for 8 hrs by ELISA; assay type: functional, organism-based; details: time 10.0 hrs
Mus musculus [20] = assay: Anti-inflammatory activity against C57BL/6J mouse model of TNFalpha-induced systemic inflammatory response syndrome (SIRS) assessed as decrease in IL-6 level in intestine at 5 mg/kg,po 2 hrs prior to mTNFalpha and z-VAD-FMK stimulation for 8 hrs by ELISA; assay type: functional, organism-based; details: time 10.0 hrs
Mus musculus [21] = assay: Anti-inflammatory activity against C57BL/6J mouse model of TNFalpha-induced systemic inflammatory response syndrome (SIRS) assessed as decrease in IL-6 level in heart at 5 mg/kg,po 2 hrs prior to mTNFalpha and z-VAD-FMK stimulation for 8 hrs by ELISA; assay type: functional, organism-based; details: time 10.0 hrs
Mus musculus [22] = assay: Anti-inflammatory activity against C57BL/6J mouse model of TNFalpha-induced systemic inflammatory response syndrome (SIRS) assessed as decrease in IL-6 level in kidney at 5 mg/kg,po 2 hrs prior to mTNFalpha and z-VAD-FMK stimulation for 8 hrs by ELISA; assay type: functional, organism-based; details: time 10.0 hrs

SMILES	EC50 (HT-29 [1])	CC50 [2]	further results
O=C(Cc1cccc(OC(F)(F)F)c1)Nc1cc(Cc2ccc3nc(NC(=O)C4CC4)sc3c2)ccc1F	0.31 µM	> 10 µM	
O=C(Cc1cccc(OC(F)(F)F)c1)Nc1c(F)cccc1-c1ccc2nc(NC(=O)C3CC3)sc2c1	> 20 µM	> 10 µM	
O=C(Cc1cccc(OC(F)(F)F)c1)Nc1cccc(-c2ccc3nc(NC(=O)C4CC4)sc3c2)c1F	0.34 µM	> 10 µM	Kd [3]: > 5 µM; Kd [4]: 0.14 µM
O=C(Cc1cccc(OC(F)(F)F)c1)Nc1cc(C(=O)Nc2ccc3nc(NC(=O)C4CC4)sc3c2)ccc1F	1.26 µM	> 10 µM	
O=C(Cc1cccc(OC(F)(F)F)c1)Nc1cc(-c2ccc3sc(NC(=O)C4CC4)nc3c2)ccc1F	> 20 µM	> 10 µM	
CN(c1ccc(F)c(NC(=O)Cc2cccc(OC(F)(F)F)c2)c1)c1ccc2nc(NC(=O)C3CC3)sc2c1	0.75 µM	> 10 µM	
O=C(Cc1cccc(OC(F)(F)F)c1)Nc1cc(Nc2ccc3nc(NC(=O)C4CC4)sc3c2)ccc1F	1.24 µM	> 10 µM	
O=C(Cc1cccc(OC(F)(F)F)c1)Nc1cc(C(=O)c2ccc3nc(NC(=O)C4CC4)sc3c2)ccc1F	2.04 µM	> 10 µM	
O=C(Cc1cccc(OC(F)(F)F)c1)Nc1cc(Sc2ccc3nc(NC(=O)C4CC4)sc3c2)ccc1F	1.56 µM	> 10 µM	
O=C(Cc1cccc(OC(F)(F)F)c1)Nc1cc(C#Cc2ccc3nc(NC(=O)C4CC4)sc3c2)ccc1F	0.2 µM	> 10 µM	
O=C(Cc1cccc(OC(F)(F)F)c1)Nc1cc(C(O)c2ccc3nc(NC(=O)C4CC4)sc3c2)ccc1F (stereo not given)	0.71 µM	> 10 µM	
O=C(Nc1cccc(C(F)(F)F)c1)Nc1cc(Oc2ccc3nc(NC(=O)C4CC4)sc3c2)ccc1F			Activity (HT-29 [5]): Active
O=C(Cc1cccc(C(F)(F)F)c1)Nc1cc(Oc2cc3sc(NC(=O)C4CC4)nc3cc2F)ccc1F			EC50 (HT-29 [6]): 0.008 µM
O=C(Cc1cccc(OC(F)(F)F)c1)Nc1cc(-c2cccc3nc(NC(=O)C4CC4)sc23)ccc1F	> 20 µM	> 10 µM	
O=C(Cc1cccc(OC(F)(F)F)c1)Nc1cc(NC(=O)c2ccc3nc(NC(=O)C4CC4)sc3c2)ccc1F	3.13 µM	> 10 µM	
O=C(Cc1cccc(OC(F)(F)F)c1)Nc1cc(Oc2ccc3nc(NC(=O)C4CC4)sc3c2)ccc1F			Activity (Mus musculus [7]): inactive; Activity (Mus musculus [8]): inactive; Activity (Mus musculus [9]): inactive; Activity (Mus musculus [10]): inactive; Activity (HT-29 [5]): Active; Activity (Mus musculus [11]): inactive; Activity (Mus musculus [12]): inactive; Activity (Mus musculus [13]): inactive; Activity (Mus musculus [14]): inactive; Activity (Mus musculus [15]): inactive; survival at 5 mg/kg (Mus musculus [16]): 40%; Activity (Mus musculus [17]): inactive; Activity (Mus musculus [18]): inactive; Activity (Mus musculus [19]): inactive; Activity (Mus musculus [20]): inactive; Activity (Mus musculus [21]): inactive; Activity (Mus musculus [22]): inactive
O=C(Cc1cccc(OC(F)(F)F)c1)Nc1cc(COc2ccc3nc(NC(=O)C4CC4)sc3c2)ccc1F	0.9 µM	> 10 µM	
O=C(Cc1cccc(OC(F)(F)F)c1)Nc1ccc(-c2ccc3nc(NC(=O)C4CC4)sc3c2)cc1F	> 20 µM	> 10 µM	
O=C(Cc1cccc(OC(F)(F)F)c1)Nc1cc(-c2cccc3sc(NC(=O)C4CC4)nc23)ccc1F	> 20 µM	> 10 µM	
O=C(Cc1cccc(OC(F)(F)F)c1)Nc1cc(S(=O)(=O)c2ccc3nc(NC(=O)C4CC4)sc3c2)ccc1F	> 20 µM	> 10 µM	
